Common to all, as to experiment: NCI tumour cell line growth inhibition, 48 h
Assay [1] has as its system DU-145 prostate.
The subject of assay [2] is HCC-2998 colon.
Assay [3] relates to HCT-15 colon.
In assay [4] the test system is HS 578T breast.
Assay [5] relates to K-562 leukemia.
The test system of assay [6] is MCF7 breast.
Assay [7] has as its system NCI-H460 lung.
Assay [8] deals with NCI-H522 lung.
Assay [9] has as its system OVCAR-4 ovarian.
For assay [10], the system named is PC-3 prostate.
Assay [11] concerns SF-295 CNS.
The test system of assay [12] is SF-539 CNS.
Assay [13] has as its system SK-MEL-28 melanoma.
Assay [14] deals with SNB-19 CNS.
In assay [15] the test system is SR leukemia.
Assay [16] deals with SW-620 colon.
The test system of assay [17] is UACC-257 melanoma.

The values that follow come from PubChem BioAssay (NCI).

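Results reflect a 48-hour exposure of cells in 96-well plates to compound at five concentrations. Definition used: TGI = concentration required for complete inhibition of growth.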

Take `CNC(=O)OC(C)CN1c2ccccc2Sc2ccccc21` (stereo unspecified): the TGI in [1], in assay [2], in assay [3], in assay [4], in assay [5] and in [6] was above 100 µM each time. Further, the TGI in [7], in [8], in assay [9], in [10], in [11] and in [12] was above 100 µM throughout. Also, the TGI in assay [13], in assay [14], in [15], in assay [16] and in assay [17] was above 100 µM throughout.
On to `COc1ccc(C(=O)N=C2N(c3ccccc3)C(=Nc3ccccc3)C(=Nc3ccccc3)N2c2ccccc2)cc1`, for which the TGI in assay [1] was above 100 µM; in assay [2] it was above 100 µM; in [3] it was above 100 µM; in assay [4] it was 96.5 µM; in [5], above 100 µM; in assay [6], above 100 µM. The TGI was above 100 µM in assay [7]; above 100 µM in assay [8]; 87.3 µM in [9]; above 65.5 µM in [10]; above 100 µM in assay [11]; above 100 µM in assay [12]. Also, the TGI in [13] was above 66.6 µM; in assay [14], above 100 µM; in [15] it was above 100 µM; in [16], above 100 µM; in assay [17], above 100 µM.
`Cc1ccc2c(c1)C(=O)C1(C2)Cc2ccc(C)cc2C1=O`: the TGI in [1], in assay [2], in assay [3], in assay [4], in assay [5] and in assay [6] was above 100 µM throughout. For the same molecule, the TGI in [7], in assay [8], in assay [9], in [10], in assay [11] and in assay [12] was above 100 µM in each case. Further, the TGI in assay [14], in assay [15], in assay [16] and in [17] was above 100 µM each time.
In the case of `c1ccc(N=C2SC(c3ccccc3)CN2C23CC4CC(CC(C4)C2)C3)cc1` (stereo unspecified), the TGI in assay [1], in [2], in assay [3], in assay [4], in assay [5] and in [6] was above 100 µM in each case. Further, the TGI in assay [7], in [8], in assay [9], in [10], in [11] and in [12] was above 100 µM throughout. In addition, the TGI in [13], in [14], in assay [15], in [16] and in assay [17] was above 100 µM in each case.
Consider `CC1(C)C2CCC1(C)C(NC(=O)CCN1CCOCC1)C2` (stereo unspecified), for which the TGI in [1], in [2], in assay [4], in assay [5], in assay [6] and in [7] was above 100 µM throughout. Further, the TGI in assay [8], in assay [9], in assay [10], in assay [11], in assay [12] and in [13] was above 100 µM throughout. The TGI in assay [14], in assay [15], in assay [16] and in [17] was above 100 µM throughout.
Take `OC(CCN1CCN(CCOC(c2ccc(F)cc2)c2ccc(F)cc2)CC1)c1ccccc1` (stereo unspecified): the TGI was determined as 32.8 µM in assay [1]; 12.4 µM in assay [2]; 27.1 µM in assay [3]; 37.3 µM in [4]; 26.4 µM in assay [5]; 35.6 µM in assay [6]. The TGI in [7] came out at 35.4 µM; in assay [8], 28.1 µM; in assay [9], 39.4 µM; in [10] it was 26.7 µM; in assay [11], 34.6 µM; in assay [12], 25.6 µM. In addition, the TGI in [13] was determined as 35.7 µM; in [14] it was 30.7 µM; in assay [15], 33.3 µM; in [16] it was 57.4 µM; in assay [17], 42.5 µM.
`COC(=O)c1ccc(/C=N/c2cc(C)nn2-c2ccccc2)cc1`: the TGI in assay [1] is above 100 µM; in assay [2] it was 8.05 µM; in assay [3] it was above 100 µM; in assay [4], above 100 µM; in assay [5], above 100 µM; in assay [6], above 100 µM. Moreover, the TGI in assay [7] is 37.3 µM; in assay [8], above 100 µM; in assay [9], above 100 µM; in assay [10], above 100 µM; in assay [11], above 100 µM; in [12], above 100 µM. The TGI in assay [13] was above 100 µM; in [14] it was above 100 µM; in assay [15], above 100 µM; in [16], above 100 µM; in assay [17], 20.4 µM.
Regarding `O=C(CCNC(=O)OCc1ccccc1)OCCCNC(=O)OCc1ccccc1`, the TGI in assay [1], in assay [2], in [3], in assay [4], in [5] and in [6] was above 100 µM each time. For the same molecule, the TGI in [7], in assay [8], in assay [9], in assay [10], in assay [11] and in assay [12] was above 100 µM throughout. Also, the TGI in assay [13], in assay [14], in [15], in assay [16] and in assay [17] was above 100 µM each time.
For the molecule `CCOC(=O)c1c(N2CCOCC2)[nH]c(=O)c(C(c2ccc(N(C)C)cc2)c2c(O)c(C(=O)OCC)c(N3CCOCC3)[nH]c2=O)c1O`, the TGI in assay [1], in assay [2], in assay [3], in assay [4], in assay [5] and in assay [6] was above 100 µM throughout. Besides, the TGI in assay [7], in assay [8], in assay [9], in assay [10], in assay [11] and in assay [12] was above 100 µM throughout. Besides, the TGI in assay [13], in assay [14], in [15], in [16] and in assay [17] was above 100 µM in each case.
